Structures are written as SMILES. Several values for one entry are separate records, joined by “and”; a condition that tells them apart may be missing. Identical values can stand only once. Inconclusive results and toxic doses are left out.

This assay relates to L1210 leukemia ip in BDF1 mice, survival T/C. The assay is described as follows: NCI In Vivo Anticancer Drug Screen. Data for tumor model L1210 Leukemia (intraperitoneal) in B6D2F1 (BDF1) mice. The following applies: endpoint: mean survival time, higher = longer survival. The procedure, abridged: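 Read-out is survival time, reported as the treated-group measurement over the vehicle-control measurement.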

The mark [1] stands for this setting: dose: 100.0 mg/kg/injection, schedule: Q04DX003 (ip), vehicle: saline.
Where [2] appears, read: dose: 200.0 mg/kg/injection, schedule: Q04DX003 (ip), vehicle: saline.
The mark [3] stands for this setting: dose: 400.0 mg/kg/injection, schedule: Q04DX003 (ip), vehicle: saline.
The mark [4] stands for this setting: dose: 100.0 mg/kg/injection, schedule: Q04DX003 (ip), vehicle: saline with Tween-80.
The mark [5] stands for this setting: dose: 200.0 mg/kg/injection, schedule: Q04DX003 (ip), vehicle: saline with Tween-80.
Where [6] appears, read: dose: 400.0 mg/kg/injection, schedule: Q04DX003 (ip), vehicle: saline with Tween-80.
Where [7] appears, read: dose: 100.0 mg/kg/injection, schedule: Q01DX001 (ip), vehicle: saline.
The mark [8] stands for this setting: dose: 200.0 mg/kg/injection, schedule: Q01DX001 (ip), vehicle: saline.
The mark [9] stands for this setting: dose: 400.0 mg/kg/injection, schedule: Q01DX001 (ip), vehicle: saline.
Where [10] appears, read: dose: 100.0 mg/kg/injection, schedule: Q01DX009 (ip), vehicle: Klucel (hydroxypropylcellulose) (HPC).
[11] abbreviates: dose: 100.0 mg/kg/injection, schedule: Q04DX003 (ip), vehicle: Klucel (hydroxypropylcellulose) (HPC).
The mark [12] stands for this setting: dose: 200.0 mg/kg/injection, schedule: Q01DX009 (ip), vehicle: Klucel (hydroxypropylcellulose) (HPC).
Setting [13] is: dose: 200.0 mg/kg/injection, schedule: Q04DX003 (ip), vehicle: Klucel (hydroxypropylcellulose) (HPC).
[14] abbreviates: dose: 400.0 mg/kg/injection, schedule: Q01DX009 (ip), vehicle: Klucel (hydroxypropylcellulose) (HPC).
Where [15] appears, read: dose: 100.0 mg/kg/injection, schedule: Q04DX002 (ip), vehicle: saline.
Where [16] appears, read: dose: 200.0 mg/kg/injection, schedule: Q04DX002 (ip), vehicle: saline.
The mark [17] stands for this setting: dose: 400.0 mg/kg/injection, schedule: Q04DX002 (ip), vehicle: saline.
Where [18] appears, read: dose: 100.0 mg/kg/injection, schedule: Q01DX001 (ip), vehicle: carboxymethylcellulose (CMC).
The mark [19] stands for this setting: dose: 200.0 mg/kg/injection, schedule: Q01DX001 (ip), vehicle: carboxymethylcellulose (CMC).
Where [20] appears, read: dose: 400.0 mg/kg/injection, schedule: Q01DX001 (ip), vehicle: carboxymethylcellulose (CMC).

For the compound `O=C1C=C(c2ccccc2)C(c2ccccc2)C1O` (stereo not drawn), the T/C is, setting by setting: (dose: 75.0 mg/kg/injection, schedule: Q01DX001 (ip), vehicle: other) 102 % of control; (dose: 150.0 mg/kg/injection, schedule: Q01DX001 (ip), vehicle: other) 97 % of control.

Consider `O=C(NCCO)NCCO`, for which the T/C under setting [1] is 95 % of control, the T/C under setting [2] is 98 % of control and the T/C under setting [3] is 123 % of control.

Consider `COc1cc(OC)c(C(=O)CCl)c(O)c1Cl`, for which the T/C is 99 % of control under setting [4], 104 % of control under setting [5] and 92 % of control under setting [6].

As to `COC(=O)[C@]1(C)CCC[C@]2(C)c3ccc(C(C)C)cc3CC[C@@H]12`, the T/C by setting is: (dose: 0.5 mg/kg/injection, schedule: Q01DX009 (ip), vehicle: Klucel (hydroxypropylcellulose) (HPC)) 100 % of control; (dose: 0.5 mg/kg/injection, schedule: Q04DX003 (ip), vehicle: Klucel (hydroxypropylcellulose) (HPC)) 107 % of control; (dose: 1.0 mg/kg/injection, schedule: Q01DX009 (ip), vehicle: Klucel (hydroxypropylcellulose) (HPC)) 111 % of control; (dose: 1.0 mg/kg/injection, schedule: Q04DX003 (ip), vehicle: Klucel (hydroxypropylcellulose) (HPC)) 93 % of control; (dose: 2.0 mg/kg/injection, schedule: Q01DX009 (ip), vehicle: Klucel (hydroxypropylcellulose) (HPC)) 98 % of control; (dose: 2.0 mg/kg/injection, schedule: Q04DX003 (ip), vehicle: Klucel (hydroxypropylcellulose) (HPC)) 98 % of control. Further, the T/C runs as follows: under setting [4], 96 % of control; under setting [5], 107 % of control; under setting [6], 102 % of control.

Consider `CC(=O)c1ccc2c(c1)Cc1ccccc1-2`, for which the T/C runs as follows: (dose: 25.0 mg/kg/injection, schedule: Q04DX003 (ip), vehicle: saline) 105 % of control; (dose: 50.0 mg/kg/injection, schedule: Q04DX003 (ip), vehicle: saline) 95 % of control; under setting [7], 90 % of control; under setting [1], 101 % of control; under setting [8], 90 % of control; under setting [2], 96 % of control. The T/C under setting [9] was 90 % of control and the T/C under setting [3] is 91 % of control.

On to `O=C(O)C(CSC(c1ccccc1)(c1ccccc1)c1ccccc1)N=Cc1ccccc1O` (stereo not drawn), for which the T/C was 154 % of control (dose: 267.0 mg/kg/injection, schedule: Q01DX001 (ip), vehicle: saline) and 154 % of control (dose: 600.0 mg/kg/injection, schedule: Q01DX001 (ip), vehicle: saline).

Take `O=[N+]([O-])c1ccc(/C=C/c2ccccc2Cl)cc1`: the T/C runs as follows: under setting [10], 97 % of control; under setting [11], 109 % of control; under setting [12], 97 % of control; under setting [13], 104 % of control; under setting [14], 101 % of control; (dose: 400.0 mg/kg/injection, schedule: Q04DX003 (ip), vehicle: Klucel (hydroxypropylcellulose) (HPC)) 107 % of control.

In the case of `O=C(CCCCCC(=O)NO)NO`, the T/C (dose: 100.0 mg/kg/injection, schedule: Q04DX002 (ip), vehicle: saline with Tween-80) was 93 % of control; the T/C under setting [15] is 100 % of control; the T/C (dose: 200.0 mg/kg/injection, schedule: Q04DX002 (ip), vehicle: saline with Tween-80) is 97 % of control; the T/C under setting [16] is 93 % of control; the T/C (dose: 400.0 mg/kg/injection, schedule: Q04DX002 (ip), vehicle: saline with Tween-80) was 97 % of control; the T/C under setting [17] is 93 % of control.

On to `CCOC(=O)NCc1cnccn1`, for which the T/C is, setting by setting: under setting [1], 100 % of control and 102 % of control; under setting [2], 95 % of control and 100 % of control; under setting [3], 104 % of control.

With `O=C(Nc1ccc(CCO)cc1)c1cccc(F)c1`, the T/C is 96 % of control under setting [10], 107 % of control under setting [12] and 91 % of control under setting [14].

As to `CCSCCOc1c(C(C)(C)C)cc([N+](=O)[O-])c(C)c1[N+](=O)[O-]`, the T/C reads like this: under setting [15], 103 % of control; under setting [16], 100 % of control; under setting [17], 106 % of control.

As for `CCOc1ccc(Br)cc1C1N(Cc2ccc(OC)cc2)CCCN1Cc1ccc(OC)cc1`, the T/C is 96 % of control under setting [18], 93 % of control under setting [19] and 91 % of control under setting [20].

Take `CCCNC(c1ccccc1)=[N+]1CCCCC1`: the T/C (dose: 12.5 mg/kg/injection, schedule: Q04DX002 (ip), vehicle: saline) was 95 % of control and the T/C (dose: 25.0 mg/kg/injection, schedule: Q04DX002 (ip), vehicle: saline) was 98 % of control.

In the case of `O=C(NCCNC(=O)c1ccncc1)c1ccccc1`, the T/C reads like this: under setting [18], 93 % of control; under setting [19], 104 % of control; under setting [20], 98 % of control.

In the case of `COc1ccc2c(c1)c1c(C)c3cnccc3c(C)c1n2CCCN1C(=O)c2ccccc2C1=O`, the T/C by setting is: (dose: 50.0 mg/kg/injection, schedule: Q04DX003 (ip), vehicle: saline with Tween-80) 94 % of control; (dose: 100.0 mg/kg/injection, schedule: Q01DX009 (ip), vehicle: saline with Tween-80) 96 % of control; under setting [4], 92 % of control; (dose: 200.0 mg/kg/injection, schedule: Q01DX009 (ip), vehicle: saline with Tween-80) 101 % of control; under setting [5], 93 % of control; (dose: 400.0 mg/kg/injection, schedule: Q01DX001 (oral), vehicle: saline with Tween-80) 110 % of control. The T/C runs as follows: (dose: 400.0 mg/kg/injection, schedule: Q01DX009 (ip), vehicle: saline with Tween-80) 101 % of control; under setting [6], 94 % of control; (dose: 800.0 mg/kg/injection, schedule: Q01DX001 (oral), vehicle: saline with Tween-80) 108 % of control; (dose: 1600.0 mg/kg/injection, schedule: Q01DX001 (oral), vehicle: saline with Tween-80) 112 % of control.

For `CCOc1nc2ccccc2c2cc3ccccc3cc12`, the T/C is, setting by setting: under setting [7], 103 % of control; under setting [8], 109 % of control; under setting [9], 111 % of control.

As for `CCC(C)Nc1ccccc1` (stereo not drawn), the T/C by setting is: (dose: 50.0 mg/kg/injection, schedule: Q01DX009 (ip), vehicle: Klucel (hydroxypropylcellulose) (HPC)) 102 % of control and 104 % of control; (dose: 50.0 mg/kg/injection, schedule: Q04DX003 (ip), vehicle: Klucel (hydroxypropylcellulose) (HPC)) 101 % of control; under setting [10], 102 % of control and 103 % of control; under setting [11], 101 % of control; under setting [12], 94 % of control and 87 % of control; under setting [13], 97 % of control.

With `CCNC(=O)C1C2C=CC(CC2)C1C(=O)NCC` (stereo not drawn), the T/C is, setting by setting: under setting [4], 87 % of control; under setting [5], 96 % of control; under setting [6], 96 % of control.
